Literature values as cited in patent US20190314449A1, “CYCLIC DIPEPTIDES AND WOUND HEALING” (THE BOARD OF REGENTS OF THE UNIVERSITY OF TEXAS SYSTEM, priority 2016, published 2019).

Legend:
heme oxygenase 1 = conditions: neuronal cultures; cited from earlier work
[1] = human, acute oral, 24 mg/dose, cited from earlier work

O=C1NC(Cc2c[nH]cn2)C(=O)N2CCCC12 (centres unmarked) [Cyclo-His-Pro]
heme oxygenase 1 expression via activation of Nrf-2 ARE signaling (heme oxygenase 1): up-regulate heme oxygenase 1
time at which plasma CHP levels peak ([1]; plasma): 4 h
time at which plasma CHP levels return to normal ([1]; plasma): ≤ 24 h
absorption from the gastrointestinal tract [1]: absorbed from the gastrointestinal tract
side effects based on physical and blood chemistry examinations [1]: No side effects
